{"source": "ChEMBL document CHEMBL1201862", "about": "“PubChem BioAssay data set” (2004)", "test_in_all_cases": "DTP human tumour cell line panel, 48 h", "key": {"[1]": {"system": "EKVX"}, "[2]": {"system": "PC-3"}, "[3]": {"system": "SN12C"}, "[4]": {"system": "DU-145"}, "[5]": {"system": "HT-29"}, "[6]": {"system": "Hs-578T"}, "[7]": {"system": "OVCAR-4"}, "[8]": {"system": "T47D"}, "[9]": {"system": "SF-295"}, "[10]": {"system": "SR"}, "[11]": {"system": "OVCAR-5"}, "[12]": {"system": "SK-MEL-2"}, "[13]": {"system": "HOP-92"}, "[14]": {"system": "SK-MEL-5"}, "[15]": {"system": "COLO 205"}, "[16]": {"system": "SNB-75"}, "[17]": {"system": "K562"}, "[18]": {"system": "A498"}, "[19]": {"system": "HL-60"}, "[20]": {"system": "OVCAR-8"}, "[21]": {"system": "NCI-H226"}, "[22]": {"system": "MCF7"}, "[23]": {"system": "SK-OV-3"}, "[24]": {"system": "SF-539"}, "[25]": {"system": "UO-31"}, "[26]": {"system": "HCT-116"}, "[27]": {"system": "NCI-H522"}, "[28]": {"system": "RPMI-8226"}, "[29]": {"system": "OVCAR-3"}, "[30]": {"system": "KM12"}, "[31]": {"system": "786-0"}, "[32]": {"system": "UACC-257"}, "[33]": {"system": "HOP-62"}, "[34]": {"system": "NCI-H23"}, "[35]": {"system": "U-251"}, "[36]": {"system": "NCI-H460"}, "[37]": {"system": "IGROV-1"}, "[38]": {"system": "MDA-MB-435"}, "[39]": {"system": "A549"}, "[40]": {"system": "SK-MEL-28"}, "[41]": {"system": "MDA-MB-231"}, "[42]": {"system": "Malme-3M"}, "[43]": {"system": "UACC-62"}, "[44]": {"system": "MOLT-4"}, "[45]": {"system": "BT-549"}, "[46]": {"system": "CAKI-1"}, "[47]": {"system": "SNB-19"}, "[48]": {"system": "NCI/ADR-RES"}, "[49]": {"system": "RXF 393"}, "[50]": {"system": "HCT-15"}, "[51]": {"system": "SW-620"}, "[52]": {"system": "TK-10"}, "[53]": {"system": "ACHN"}, "[54]": {"system": "M14"}, "[55]": {"system": "HCC 2998"}, "[56]": {"system": "LOX IMVI"}, "[57]": {"system": "SF-268"}, "[58]": {"system": "CCRF-CEM"}}, "note": "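Method: 48-hour compound exposure of cells in 96-well plates, five concentrations, linear interpolation of endpoints. GI50 marks 50% less growth.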 Calls of active or inactive are those of the source. Cut-off read from the data, not from the text of the source: active = GI50 up to about 1.1 µM and inactive = higher.", "data": [{"smiles": "COc1ccc(CNc2nc(NCc3ccc(OC)cc3)nc(N3CCOCC3)n2)cc1", "values": [{"measurement": "GI50", "setting": "[1]", "value": "37.4 µM (inactive)"}, {"measurement": "GI50", "setting": "[2]", "value": "4.05 µM (inactive)"}, {"measurement": "GI50", "setting": "[3]", "value": "5.37 µM (inactive)"}, {"measurement": "GI50", "setting": "[4]", "value": "15.1 µM (inactive)"}, {"measurement": "GI50", "setting": "[5]", "value": "2.79 µM (inactive)"}, {"measurement": "GI50", "setting": "[6]", "value": "4.23 µM (inactive)"}, {"measurement": "GI50", "setting": "[7]", "value": "15.5 µM (inactive)"}, {"measurement": "GI50", "setting": "[8]", "value": "9.84 µM (inactive)"}, {"measurement": "GI50", "setting": "[9]", "value": "2.77 µM (inactive)"}, {"measurement": "GI50", "setting": "[10]", "value": "2.79 µM (inactive)"}, {"measurement": "GI50", "setting": "[11]", "value": "4.26 µM (inactive)"}, {"measurement": "GI50", "setting": "[12]", "value": "> 100 µM (inactive)"}, {"measurement": "GI50", "setting": "[13]", "value": "22.8 µM (inactive)"}, {"measurement": "GI50", "setting": "[14]", "value": "5.41 µM (inactive)"}, {"measurement": "GI50", "setting": "[15]", "value": "3.91 µM (inactive)"}, {"measurement": "GI50", "setting": "[16]", "value": "5.51 µM (inactive)"}, {"measurement": "GI50", "setting": "[17]", "value": "4.55 µM (inactive)"}, {"measurement": "GI50", "setting": "[18]", "value": "11 µM (inactive)"}, {"measurement": "GI50", "setting": "[19]", "value": "2.74 µM (inactive)"}, {"measurement": "GI50", "setting": "[20]", "value": "6.81 µM (inactive)"}, {"measurement": "GI50", "setting": "[21]", "value": "19.2 µM (inactive)"}, {"measurement": "GI50", "setting": "[22]", "value": "4.15 µM (inactive)"}, {"measurement": "GI50", "setting": "[23]", "value": "8.83 µM (inactive)"}, {"measurement": "GI50", "setting": "[24]", "value": "4.27 µM (inactive)"}, {"measurement": "GI50", "setting": "[25]", "value": "62.8 µM (inactive)"}, {"measurement": "GI50", "setting": "[26]", "value": "4.49 µM (inactive)"}, {"measurement": "GI50", "setting": "[27]", "value": "3.95 µM (inactive)"}, {"measurement": "GI50", "setting": "[28]", "value": "1.69 µM (inactive)"}, {"measurement": "GI50", "setting": "[29]", "value": "2.44 µM (inactive)"}, {"measurement": "GI50", "setting": "[30]", "value": "2.34 µM (inactive)"}, {"measurement": "GI50", "setting": "[31]", "value": "5.25 µM (inactive)"}, {"measurement": "GI50", "setting": "[32]", "value": "5.22 µM (inactive)"}, {"measurement": "GI50", "setting": "[33]", "value": "7.11 µM (inactive)"}, {"measurement": "GI50", "setting": "[34]", "value": "3.91 µM (inactive)"}, {"measurement": "GI50", "setting": "[35]", "value": "4.43 µM (inactive)"}, {"measurement": "GI50", "setting": "[36]", "value": "4.23 µM (inactive)"}, {"measurement": "GI50", "setting": "[37]", "value": "7.91 µM (inactive)"}, {"measurement": "GI50", "setting": "[38]", "value": "2.02 µM (inactive)"}, {"measurement": "GI50", "setting": "[39]", "value": "7.13 µM (inactive)"}, {"measurement": "GI50", "setting": "[40]", "value": "40.2 µM (inactive)"}, {"measurement": "GI50", "setting": "[41]", "value": "6.12 µM (inactive)"}, {"measurement": "GI50", "setting": "[42]", "value": "1.03 µM (active)"}, {"measurement": "GI50", "setting": "[43]", "value": "3.58 µM (inactive)"}, {"measurement": "GI50", "setting": "[44]", "value": "2.88 µM (inactive)"}, {"measurement": "GI50", "setting": "[45]", "value": "19.1 µM (inactive)"}, {"measurement": "GI50", "setting": "[46]", "value": "2.71 µM (inactive)"}, {"measurement": "GI50", "setting": "[47]", "value": "6.31 µM (inactive)"}, {"measurement": "GI50", "setting": "[48]", "value": "2.84 µM (inactive)"}, {"measurement": "GI50", "setting": "[49]", "value": "> 100 µM (inactive)"}, {"measurement": "GI50", "setting": "[50]", "value": 2.29, "unit": "µM"}, {"measurement": "GI50", "setting": "[51]", "value": "4.25 µM (inactive)"}, {"measurement": "GI50", "setting": "[52]", "value": "3.4 µM (inactive)"}, {"measurement": "GI50", "setting": "[53]", "value": "5.62 µM (inactive)"}, {"measurement": "GI50", "setting": "[54]", "value": "6.35 µM (inactive)"}]}, {"smiles": "C/C(=N\\NS(=O)(=O)c1ccc(C)cc1)c1ccccn1", "values": [{"measurement": "GI50", "setting": "[1]", "value": "35.5 µM (inactive)"}, {"measurement": "GI50", "setting": "[2]", "value": "84.3 µM (inactive)"}, {"measurement": "GI50", "setting": "[55]", "value": "> 100 µM (inactive)"}, {"measurement": "GI50", "setting": "[4]", "value": "> 100 µM (inactive)"}, {"measurement": "GI50", "setting": "[5]", "value": "44.5 µM (inactive)"}, {"measurement": "GI50", "setting": "[6]", "value": "87.3 µM (inactive)"}, {"measurement": "GI50", "setting": "[7]", "value": "68.2 µM (inactive)"}, {"measurement": "GI50", "setting": "[8]", "value": "76.9 µM (inactive)"}, {"measurement": "GI50", "setting": "[9]", "value": "43.3 µM (inactive)"}, {"measurement": "GI50", "setting": "[10]", "value": "65 µM (inactive)"}, {"measurement": "GI50", "setting": "[56]", "value": "55.6 µM (inactive)"}, {"measurement": "GI50", "setting": "[11]", "value": "> 100 µM (inactive)"}, {"measurement": "GI50", "setting": "[12]", "value": "> 100 µM (inactive)"}, {"measurement": "GI50", "setting": "[13]", "value": "> 100 µM (inactive)"}, {"measurement": "GI50", "setting": "[14]", "value": "33.4 µM (inactive)"}, {"measurement": "GI50", "setting": "[15]", "value": "32.7 µM (inactive)"}, {"measurement": "GI50", "setting": "[16]", "value": "> 100 µM (inactive)"}, {"measurement": "GI50", "setting": "[17]", "value": "83.8 µM (inactive)"}, {"measurement": "GI50", "setting": "[18]", "value": "24.3 µM (inactive)"}, {"measurement": "GI50", "setting": "[19]", "value": "34 µM (inactive)"}, {"measurement": "GI50", "setting": "[57]", "value": "67.3 µM (inactive)"}, {"measurement": "GI50", "setting": "[20]", "value": "50.8 µM (inactive)"}, {"measurement": "GI50", "setting": "[21]", "value": "32.9 µM (inactive)"}, {"measurement": "GI50", "setting": "[22]", "value": "53.8 µM (inactive)"}, {"measurement": "GI50", "setting": "[23]", "value": "55.3 µM (inactive)"}, {"measurement": "GI50", "setting": "[24]", "value": "40.8 µM (inactive)"}, {"measurement": "GI50", "setting": "[25]", "value": "40.5 µM (inactive)"}, {"measurement": "GI50", "setting": "[26]", "value": "40.7 µM (inactive)"}, {"measurement": "GI50", "setting": "[28]", "value": "> 100 µM (inactive)"}, {"measurement": "GI50", "setting": "[29]", "value": "50.7 µM (inactive)"}, {"measurement": "GI50", "setting": "[30]", "value": "43.7 µM (inactive)"}, {"measurement": "GI50", "setting": "[31]", "value": "45.3 µM (inactive)"}, {"measurement": "GI50", "setting": "[32]", "value": "81.8 µM (inactive)"}, {"measurement": "GI50", "setting": "[33]", "value": "62.2 µM (inactive)"}, {"measurement": "GI50", "setting": "[34]", "value": "54.1 µM (inactive)"}, {"measurement": "GI50", "setting": "[35]", "value": "88.5 µM (inactive)"}, {"measurement": "GI50", "setting": "[36]", "value": "49.7 µM (inactive)"}, {"measurement": "GI50", "setting": "[37]", "value": "47.2 µM (inactive)"}, {"measurement": "GI50", "setting": "[38]", "value": "> 100 µM (inactive)"}, {"measurement": "GI50", "setting": "[39]", "value": "53.3 µM (inactive)"}, {"measurement": "GI50", "setting": "[40]", "value": "98.2 µM (inactive)"}, {"measurement": "GI50", "setting": "[41]", "value": "> 100 µM (inactive)"}, {"measurement": "GI50", "setting": "[42]", "value": "60.3 µM (inactive)"}, {"measurement": "GI50", "setting": "[43]", "value": "40.2 µM (inactive)"}, {"measurement": "GI50", "setting": "[44]", "value": "21.2 µM (inactive)"}, {"measurement": "GI50", "setting": "[45]", "value": "> 100 µM (inactive)"}, {"measurement": "GI50", "setting": "[46]", "value": "36 µM (inactive)"}, {"measurement": "GI50", "setting": "[58]", "value": "18.5 µM (inactive)"}, {"measurement": "GI50", "setting": "[47]", "value": "74.8 µM (inactive)"}, {"measurement": "GI50", "setting": "[48]", "value": "38 µM (inactive)"}, {"measurement": "GI50", "setting": "[49]", "value": "> 100 µM (inactive)"}, {"measurement": "GI50", "setting": "[50]", "value": 38.5, "unit": "µM"}, {"measurement": "GI50", "setting": "[51]", "value": "> 100 µM (inactive)"}, {"measurement": "GI50", "setting": "[52]", "value": "70.6 µM (inactive)"}, {"measurement": "GI50", "setting": "[53]", "value": "26.1 µM (inactive)"}, {"measurement": "GI50", "setting": "[54]", "value": "34.6 µM (inactive)"}]}]}
